Measurements taken from PubChem BioAssay AID1963964 (Molecular Pharmacology Branch, DTP, NCI, 2024).

System: 997726-040-R-J2-PDC tumor spheroids, viability
Test: Anticancer human tumor 997726-040-R-J2-PDC patient-derived squamous cell lung carcinoma cell line growth inhibition [PI3K]
Conditions: spheroids with HUVEC and MSC; for IC50: curve of first compound; for viability, T/C: stronger effect = lower value
Summary of the method: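 Targeted small molecules plus PI3K inhibitors, half-log dose series from Cmax (default top 10 microM), were applied to heterotypic spheroids of cancer cells with HUVEC and MSCs. Viability indicated growth inhibition.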

[1] = second compound 0.0316 µM, first compound 0.0316 µM
[2] = second compound 0.0316 µM, first compound 0.1 µM
[3] = second compound 0.0316 µM, first compound 0.316 µM
[4] = second compound 0.0316 µM, first compound 1 µM
[5] = second compound 0.0316 µM, first compound 3.16 µM
[6] = second compound 0.0316 µM, first compound 10 µM
[7] = second compound 0.1 µM, first compound 0.0316 µM
[8] = second compound 0.1 µM, first compound 0.1 µM
[9] = second compound 0.1 µM, first compound 0.316 µM
[10] = second compound 0.1 µM, first compound 1 µM
[11] = second compound 0.1 µM, first compound 3.16 µM
[12] = second compound 0.1 µM, first compound 10 µM
[13] = second compound 0.316 µM, first compound 0.0316 µM
[14] = second compound 0.316 µM, first compound 0.1 µM
[15] = second compound 0.316 µM, first compound 0.316 µM
[16] = second compound 0.316 µM, first compound 1 µM
[17] = second compound 0.316 µM, first compound 3.16 µM
[18] = second compound 0.316 µM, first compound 10 µM
[19] = second compound 1 µM, first compound 0.0316 µM
[20] = second compound 1 µM, first compound 0.1 µM
[21] = second compound 1 µM, first compound 0.316 µM
[22] = second compound 1 µM, first compound 1 µM
[23] = second compound 1 µM, first compound 3.16 µM
[24] = second compound 1 µM, first compound 10 µM
[25] = second compound 3.16 µM, first compound 0.0316 µM
[26] = second compound 3.16 µM, first compound 0.1 µM
[27] = second compound 3.16 µM, first compound 0.316 µM
[28] = second compound 3.16 µM, first compound 1 µM
[29] = second compound 3.16 µM, first compound 3.16 µM
[30] = second compound 3.16 µM, first compound 10 µM
[31] = second compound 10 µM, first compound 0.0316 µM
[32] = second compound 10 µM, first compound 0.1 µM
[33] = second compound 10 µM, first compound 0.316 µM
[34] = second compound 10 µM, first compound 1 µM
[35] = second compound 10 µM, first compound 3.16 µM
[36] = second compound 10 µM, first compound 10 µM
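Note: spheroids exposed to compounds for seven days before readout.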

Compound C=CC(=O)N1CCN(c2nc(=O)n(-c3c(C)ccnc3C(C)C)c3nc(-c4c(O)cccc4F)c(F)cc23)C(C)C1 (stereo unspecified) + Cc1nc(NC(=O)N2CCCC2C(N)=O)sc1-c1ccnc(C(C)(C)C(F)(F)F)c1 has an IC50 (second compound 0.0316 µM) greater than 10000 nM, an IC50 (second compound 0.1 µM) greater than 10000 nM and an IC50 (second compound 0.316 µM) greater than 10000 nM. It also gave an IC50 (second compound 1 µM) of less than 31.6 nM, an IC50 (second compound 3.16 µM) of less than 31.6 nM and an IC50 (second compound 10 µM) of less than 31.6 nM. The viability, T/C [1] was 82.8%, the viability, T/C [2] was 84.3% and the viability, T/C [3] was 101%. The viability, T/C [4] was 108%, the viability, T/C [5] was 102% and the viability, T/C [6] was 109%. The viability, T/C [7] was 76.3%, the viability, T/C [8] was 72.7% and the viability, T/C [9] was 71.1%. The viability, T/C [10] was 86.8%, the viability, T/C [11] was 101% and the viability, T/C [12] was 89.3%. The viability, T/C [13] was 53.3%, the viability, T/C [14] was 55.9% and the viability, T/C [15] was 61%. It also gave a viability, T/C [16] of 59.5%, a viability, T/C [17] of 63.6% and a viability, T/C [18] of 65.6%. The viability, T/C [19] was 40.8%, the viability, T/C [20] was 41.8% and the viability, T/C [21] was 45%. For the same compound, the viability, T/C [22] was 39.8%, the viability, T/C [23] was 52% and the viability, T/C [24] was 46.2%. For the same compound, the viability, T/C [25] was 30.9%, the viability, T/C [26] was 28.6% and the viability, T/C [27] was 33.6%. It also gave a viability, T/C [28] of 28.6%, a viability, T/C [29] of 34.1% and a viability, T/C [30] of 32.2%. For the same compound, the viability, T/C [31] was 16.2%, the viability, T/C [32] was 16% and the viability, T/C [33] was 15.9%. It also gave a viability, T/C [34] of 17.4%, a viability, T/C [35] of 22% and a viability, T/C [36] of 9.67%.

Work on Cn1ncc(Cl)c1-c1cc(C(=O)NC(CN)Cc2cccc(F)c2)sc1Cl (stereo unspecified) + Cc1nc(NC(=O)N2CCCC2C(N)=O)sc1-c1ccnc(C(C)(C)C(F)(F)F)c1 yielded an IC50 (second compound 0.0316 µM) of 96.7 nM, an IC50 (second compound 0.1 µM) of 77.4 nM and an IC50 (second compound 0.316 µM) of 32.1 nM. The IC50 (second compound 1 µM) was less than 31.6 nM, the IC50 (second compound 3.16 µM) was less than 31.6 nM and the IC50 (second compound 10 µM) was less than 31.6 nM. The viability, T/C [1] was 68%, the viability, T/C [2] was 49.7% and the viability, T/C [3] was 23.7%. The viability, T/C [4] was 11.6%, the viability, T/C [5] was 9.66% and the viability, T/C [6] was 5.52%. It also gave a viability, T/C [7] of 65.4%, a viability, T/C [8] of 45.7% and a viability, T/C [9] of 25%. The viability, T/C [10] was 13%, the viability, T/C [11] was 9.73% and the viability, T/C [12] was 6.2%. It also gave a viability, T/C [13] of 50%, a viability, T/C [14] of 37.7% and a viability, T/C [15] of 22.5%. The viability, T/C [16] was 11.7%, the viability, T/C [17] was 9.53% and the viability, T/C [18] was 3.13%. It also gave a viability, T/C [19] of 39.9%, a viability, T/C [20] of 35.2% and a viability, T/C [21] of 21.6%. It also gave a viability, T/C [22] of 11.3%, a viability, T/C [23] of 8.3% and a viability, T/C [24] of 2.53%. For the same compound, the viability, T/C [25] was 25.3%, the viability, T/C [26] was 22.5% and the viability, T/C [27] was 13.9%. For the same compound, the viability, T/C [28] was 10%, the viability, T/C [29] was 6.18% and the viability, T/C [30] was 1.9%. For the same compound, the viability, T/C [31] was 15%, the viability, T/C [32] was 11.3% and the viability, T/C [33] was 7.08%. For the same compound, the viability, T/C [34] was 4.6%, the viability, T/C [35] was 3.71% and the viability, T/C [36] was 1.05%.

Cn1nccc1Nc1nccc(-c2ccn(C(CO)c3ccc(Cl)c(F)c3)c(=O)c2)n1 (stereo unspecified) + Cc1nc(NC(=O)N2CCCC2C(N)=O)sc1-c1ccnc(C(C)(C)C(F)(F)F)c1 was tested, and the IC50 (second compound 0.0316 µM) was 6270 nM, the IC50 (second compound 0.1 µM) was 307 nM and the IC50 (second compound 0.316 µM) was 59.9 nM. It also gave an IC50 (second compound 1 µM) of less than 31.6 nM, an IC50 (second compound 3.16 µM) of less than 31.6 nM and an IC50 (second compound 10 µM) of less than 31.6 nM. It also gave a viability, T/C [1] of 72.8%, a viability, T/C [2] of 72.3% and a viability, T/C [3] of 63.3%. For the same compound, the viability, T/C [4] was 65.4%, the viability, T/C [5] was 55% and the viability, T/C [6] was 46.1%. The viability, T/C [7] was 64.7%, the viability, T/C [8] was 75.7% and the viability, T/C [9] was 48.3%. For the same compound, the viability, T/C [10] was 52%, the viability, T/C [11] was 49.3% and the viability, T/C [12] was 48.1%. It also gave a viability, T/C [13] of 55.4%, a viability, T/C [14] of 44.4% and a viability, T/C [15] of 43%. It also gave a viability, T/C [16] of 34.9%, a viability, T/C [17] of 38.7% and a viability, T/C [18] of 33%. For the same compound, the viability, T/C [19] was 41.9%, the viability, T/C [20] was 36.8% and the viability, T/C [21] was 32.7%. It also gave a viability, T/C [22] of 30.2%, a viability, T/C [23] of 28% and a viability, T/C [24] of 23.3%. It also gave a viability, T/C [25] of 29.8%, a viability, T/C [26] of 27.7% and a viability, T/C [27] of 23.2%. The viability, T/C [28] was 28.3%, the viability, T/C [29] was 27% and the viability, T/C [30] was 16.1%. It also gave a viability, T/C [31] of 17.1%, a viability, T/C [32] of 12.8% and a viability, T/C [33] of 15.8%. The viability, T/C [34] was 14.3%, the viability, T/C [35] was 17.2% and the viability, T/C [36] was 7.87%.
